The supplement of paper PMC8671470
± gives the standard deviation of the averaged measurements.

Experiments:
Settings in all cases: 72 h
[1] = tested on: BV-173
Procedure, shortened: (§1)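 Seeded in RPMI 1640 at densities within the linear growth range, fifteen myeloid leukaemia cell lines were dispensed into 384-well plates with acoustically pre-printed compounds spanning five tenfold doses from 1 to 10,000 nM, in duplicate. The plates were kept for 72 h at 37 °C in 5% CO2 before luminescent ATP viability was measured and normalised to vehicle and to a positive control at 10 µM. Curves were fitted with a four-parameter log-logistic model. The IC50 was taken from those curves.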

[2] = tested on: HEL
Procedure, shortened: as §1

[3] = tested on: HL-60
Procedure, shortened: as §1

[4] = tested on: K-562
Procedure, shortened: as §1

[5] = tested on: KCL-22
Procedure, shortened: as §1

[6] = tested on: KG-1
Procedure, shortened: as §1

[7] = tested on: KU-812
Procedure, shortened: as §1

[8] = tested on: LAMA-84
Procedure, shortened: as §1

[9] = tested on: ML-2
Procedure, shortened: as §1

[10] = tested on: MOLM-13
Procedure, shortened: as §1

[11] = tested on: MV4-11
Procedure, shortened: as §1

[12] = tested on: Mono-Mac-6
Procedure, shortened: as §1

[13] = tested on: NOMO-1
Procedure, shortened: as §1

[14] = tested on: SHI-1
Procedure, shortened: as §1

[15] = tested on: THP-1
Procedure, shortened: as §1

[16] = tested on: HL-60; test: cell viability (% survival relative to DMSO control); higher = less cytotoxic
Procedure, shortened: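 In 384-well plates, the full library was rescreened in duplicate on HL-60 cells in RPMI 1640 with 10% FBS, at 1–10,000 nM in five tenfold concentrations, for 72 h at 37 °C, 5% CO2. Each run also held DMSO or 100 nM of one of three metabolic inhibitors. Viability was measured by CellTiter-Glo and normalised to DMSO wells and to wells with proteasome inhibitor, present at 10 μM. Any area under the curve comes from four-parameter log-logistic fitting with drc and PharmacoGx.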

[17] = tested on: BV-173; test: cell viability (% survival relative to DMSO control, bortezomib = 0%); higher = less cytotoxic
Procedure, shortened: (§2)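 Fifteen myeloid leukaemia cell lines (10 AML, 5 CML) were seeded at a density titrated to the linear growth range. They went into 384-well plates with compounds pre-printed at 1, 10, 100, 1000 or 10000 nM in duplicate. After 72 h at 37 °C with 5% CO2, viability was read by CellTiter-Glo luminescence. Values are percent survival, with vehicle set to 100% and a 10 µM positive control to 0%, averaged over the duplicates.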

[18] = tested on: HL-60; test: as above
Procedure, shortened: as §2

[19] = tested on: K-562; test: as above
Procedure, shortened: as §2

[20] = tested on: KCL-22; test: as above
Procedure, shortened: as §2

[21] = tested on: KG-1; test: as above
Procedure, shortened: as §2

[22] = tested on: KU-812; test: as above
Procedure, shortened: as §2

[23] = tested on: LAMA-84; test: as above
Procedure, shortened: as §2

[24] = tested on: ML-2; test: as above
Procedure, shortened: as §2

[25] = tested on: MOLM-13; test: as above
Procedure, shortened: as §2

[26] = tested on: MV4-11; test: as above
Procedure, shortened: as §2

[27] = tested on: NOMO-1; test: as above
Procedure, shortened: as §2

[28] = tested on: THP-1; test: as above
Procedure, shortened: as §2

C[C@](N)(Cc1ccc(O)cc1)C(=O)O [Metirosine]
Settings	IC50 (cell viability) [µM]
[1]	> 10
[2]	> 10
[3]	> 10
[4]	> 10
[5]	> 10
[6]	> 10
[7]	> 10
[8]	> 10
[9]	> 10
[10]	> 10
[11]	> 10
[12]	> 10
[13]	> 10
[14]	> 10
[15]	> 10

cell viability [%], [16]
Settings	0.001 µM	0.01 µM	0.1 µM	1 µM	10 µM
co-treatment: AZD3965 100 nM	101 ± 4.8	101.8 ± 0.89	99 ± 11	95.8 ± 6.8	97.76 ± 0.91
co-treatment: DMSO vehicle	108 ± 5.7	104 ± 3	101 ± 4.5	101 ± 5.1	103 ± 1.1
co-treatment: GSK2194069 100 nM	105 ± 6	104 ± 11	98.9 ± 4	93.8 ± 14	99.6 ± 1
co-treatment: pictilisib 100 nM	116 ± 5.2	105 ± 17	98.9 ± 5.9	81.1 ± 8.7	105 ± 10

cell viability [%]
Settings	1 nM	10 nM	100 nM	1000 nM	10000 nM
[17]	98.4	89.1	115	86	114
[18]	99.2	93.7	89.7	97.6	107
[19]	113	90.2	101	107	103
[20]	107	95.1	96.9	91.8	99.7
[21]	105	93.9	94.7	89.3	107
[22]	89.4	91.1	102	91.9	96.5
[23]	102	108	107	105	99.2
[24]	91.1	96.7	107	97.9	93.5
[25]	94.4	81.5	82.9	94.6	95.7
[26]	107	87.3	92.3	107	101
[27]	95	96.6	103	93.6	102
[28]	98.3	99.5	105	94.3	101

CCCCN1C[C@H](O)[C@@H](O)[C@H](O)[C@H]1CO [Miglustat]
Settings	IC50 (cell viability) [µM]
[1]	> 10
[2]	> 10
[3]	> 10
[4]	> 10
[5]	> 10
[6]	> 10
[7]	> 10
[8]	> 10
[9]	> 10
[10]	> 10
[11]	> 10
[12]	> 10
[13]	> 10
[14]	> 10
[15]	> 10

cell viability [%], [16]
Settings	0.001 µM	0.01 µM	0.1 µM	1 µM	10 µM
co-treatment: AZD3965 100 nM	106 ± 3.3	98.2 ± 7.3	106 ± 6.2	96.6 ± 2.6	100 ± 4.3
co-treatment: DMSO vehicle	101 ± 5.3	101 ± 7.8	103 ± 5.5	98.7 ± 2	98 ± 1.2
co-treatment: GSK2194069 100 nM	91.5 ± 4.9	94.4 ± 10	104.5 ± 0.19	99.5 ± 5.5	101 ± 8.5
co-treatment: pictilisib 100 nM	104 ± 2.5	109 ± 10	112 ± 28	107 ± 3.2	101 ± 4.7

cell viability [%]
Settings	1 nM	10 nM	100 nM	1000 nM	10000 nM
[17]	90.7	104	95.6	97.8	86.8
[18]	87.6	81.8	98.7	101	91.8
[19]	94.4	95.8	94.4	99.4	89.9
[20]	90.9	82.1	97.8	98.1	82.9
[21]	92.6	102	94.8	103	93.2
[22]	87.9	94.6	89.5	105	86.7
[23]	94.3	97.8	96.4	103	92.8
[24]	95.4	112	86.5	101	94.9
[25]	90	102	90.7	93.9	90.8
[26]	99.2	91.3	103	94.4	92.2
[27]	94.3	98.4	94	103	90
[28]	91.1	93.3	89.6	102	94.7

C=C(C=NNC(=N)N)NNC(=N)N [Mitoguazone]
Settings	IC50 (cell viability) [µM]
[1]	1.44
[2]	9.12
[3]	7.01
[4]	1.32
[5]	4.4
[6]	3.31
[7]	4.55
[8]	2.29
[9]	0.916
[10]	0.944
[11]	1.13
[12]	1.24
[13]	1.59
[14]	1.1
[15]	3.08

cell viability [%], [16]
Settings	0.001 µM	0.01 µM	0.1 µM	1 µM	10 µM
co-treatment: AZD3965 100 nM	98 ± 2.1	102 ± 2.5	102 ± 1.6	93.1 ± 4.7	48.6 ± 1.8
co-treatment: DMSO vehicle	99.2 ± 4.5	100.1 ± 0.87	97.8 ± 2.5	101 ± 2.3	69.6 ± 3
co-treatment: GSK2194069 100 nM	101 ± 3.5	112 ± 10	102.2 ± 0.58	98.3 ± 1	76.9 ± 2.1
co-treatment: pictilisib 100 nM	108 ± 1.3	120 ± 2.9	104 ± 6.1	112 ± 4.9	56.7 ± 3.5

cell viability [%]
Settings	1 nM	10 nM	100 nM	1000 nM	10000 nM
[17]	105	111	107	71	13.3
[18]	85.2	73.2	148	97.7	32.9
[19]	96.1	105	114	67	29.3
[20]	94.4	100	103	86.9	42
[21]	94.9	97.2	103	84.7	34.8
[22]	105	107	96.5	83	30.6
[23]	99.9	104	100	86.6	24.4
[24]	97.7	104	100	56.6	24.7
[25]	93.7	88.3	133	52.2	13.8
[26]	105	99.2	115	59.8	10.4
[27]	94.9	102	90.9	61.7	16.2
[28]	101	104	94.9	76.1	43.6

CCCCC/C=C\C/C=C\C/C=C\C/C=C\CCCCN1C(=O)C=CC1=O [N-Arachidonylmaleimide]
Settings	IC50 (cell viability) [µM]
[1]	> 10
[2]	> 10
[3]	> 10
[4]	> 10
[5]	> 10
[6]	> 10
[7]	> 10
[8]	> 10
[9]	> 10
[10]	> 10
[11]	> 10
[12]	> 10
[13]	> 10
[14]	> 10
[15]	> 10

cell viability [%], [16]
Settings	0.001 µM	0.01 µM	0.1 µM	1 µM	10 µM
co-treatment: AZD3965 100 nM	98.7 ± 5.8	89.7 ± 24	98.58 ± 0.45	99.6 ± 8.7	101 ± 1.9
co-treatment: DMSO vehicle	92.6 ± 2.7	95.4 ± 5.9	101.04 ± 0.026	101 ± 7.1	100.9 ± 0.64
co-treatment: GSK2194069 100 nM	96.8 ± 12	84.8 ± 18	98.4 ± 4.1	100 ± 3.1	100.5 ± 0.71
co-treatment: pictilisib 100 nM	96.4 ± 4.4	84.8 ± 1.7	97 ± 4.4	97.89 ± 0.76	103 ± 2.2

cell viability [%]
Settings	1 nM	10 nM	100 nM	1000 nM	10000 nM
[17]	99.9	97.7	97.8	94.8	96.8
[18]	111	94.7	81.8	125	88.1
[19]	103	91.5	93.4	110	90.6
[20]	90.9	95.7	100	105	95
[21]	98.9	97.9	101	93.1	103
[22]	103	97.9	94.6	97.2	91.4
[23]	96.8	99.9	98.4	97.7	96
[24]	95.9	97.1	96.6	94.3	91
[25]	98.8	109	101	110	88
[26]	82.1	97.8	106	93.2	95.3
[27]	95.5	98.1	103	96.5	99.4
[28]	102	99.2	101	97.7	96.3

CCCCCCCCCCC[C@@H](C[C@@H]1OC(=O)[C@H]1CCCCCC)OC(=O)[C@H](CC(C)C)NC=O [Orlistat]
Settings	IC50 (cell viability) [µM]
[1]	> 10
[2]	> 10
[3]	> 10
[4]	> 10
[5]	> 10
[6]	> 10
[7]	> 10
[8]	> 10
[9]	> 10
[10]	> 10
[11]	> 10
[12]	> 10
[13]	> 10
[14]	> 10
[15]	> 10

cell viability [%], [16]
Settings	0.001 µM	0.01 µM	0.1 µM	1 µM	10 µM
co-treatment: AZD3965 100 nM	98.6 ± 3.3	99.5 ± 3.5	102 ± 4.7	94.9 ± 5.9	100 ± 1.6
co-treatment: DMSO vehicle	93.7 ± 0.7	105 ± 2.1	104 ± 3.7	98.57 ± 0.82	99.8 ± 2.4
co-treatment: GSK2194069 100 nM	94.4 ± 1.7	96.4 ± 6.2	109 ± 24	94.7 ± 3.8	77.7 ± 8.3
co-treatment: pictilisib 100 nM	99.1 ± 2.1	109 ± 6.4	95.6 ± 3.8	94.4 ± 7.5	90.5 ± 10

cell viability [%]
Settings	1 nM	10 nM	100 nM	1000 nM	10000 nM
[17]	86.3	92	79.9	87.5	82
[18]	122	105	108	106	98.7
[19]	118	85.1	88.2	103	103
[20]	105	87.9	90.2	97	86.9
[21]	96.2	99.6	96.4	100	53.3
[22]	98.3	92.1	96.4	98.5	89.6
[23]	101	103	93.9	93.7	94.4
[24]	93.6	101	93.6	88.6	86
[25]	140	104	87.9	65.3	95.2
[26]	107	97.2	71.6	109	79.8
[27]	101	95	96.6	106	96.5
[28]	97.5	99	85.2	95	94.6
